According to patent publication US7449537B2, “Antineoplastic polyalkoxyalkylsiloxanes and methods of use thereof” (NDSU Research Foundation, priority 2001, dated 2008):

Tests used:
Assay type in all cases: cell-based, human
[1] = test system: MCF7 (breast carcinoma) cell line; experiment: DTP 3-cell line single-dose antineoplastic pre-screen (sulforhodamine B); conditions: 1.00 E-04 Molar, 48 hours, growth relative to untreated control cells; negative = cell kill
Text: (§1) For the past 10 years, the Developmental Therapeutics Program (DTP) of the National Cancer Institute (NCI) has used an in vitro model consisting of 60 human tumor cell lines as the primary anticancer screen (see, J. Natl. Cancer Inst., 83:757-766, (1991)). […] In view of this, the DTP now uses a 3-cell line panel consisting of the MCF7(breast carcinoma) cell line, the NCI-H460 (lung carcinoma) cell line, and the SF-268 (CNS glioma) cell line as its primary anticancer (antineoplastic) assay. This 3-cell line, single-dose assay has been in use by DTP for several years for the evaluation of combinatorial libraries and has proven to be an effective pre-screen for compounds with antineoplastic activity.
(§2) In the DTP protocol, each cell line is inoculated and preincubated on a microtiter plate. Test agents are then added at a single concentration and the culture incubated for 48 hours. End-point determination are made with sulforhodamine B, a protein-binding dye. Results for each test agent are reported as the percent of growth of the treated cells normalized against the growth of the corresponding untreated control cells, i.e., a reported value of +100% refers to cell growth equivalent to that of the corresponding untreated control cells. […] Compounds which reduce the growth of any one of the cell lines to a value of +32% or less (negative numbers indicate cell kill) are generally considered to be sufficiently “active” to be selected for further evaluation by NCI in a full panel of 60 tumor cell lines over a 5-log dose range.
(§3) Two poly((aminofunctional alkoxy)-alkylsiloxane) compounds were tested for antineoplastic activity in the DTP screen. The two compounds (linear poly((aminofunctional alkoxy)-alkylsiloxanes) 5 and 3) were prepared according to the procedures described in Examples 2 and 5 above, respectively. […] This compound includes 1,3-N,N-dimethylamino-2-propoxy groups.

[2] = test system: SF-268 (CNS glioma) cell line; experiment: as above; conditions: 1.00 E-04 Molar, 48 hours, growth relative to untreated control cells; negative = cell kill
Text: as §1, §2, §3

[3] = test system: NCI-H460 (lung carcinoma) cell line; experiment: as above; conditions: 1.00 E-04 Molar, 48 hours, growth relative to untreated control cells; negative = cell kill
Text: as §1, §2, §3

[4] = test system: 3-cell line panel MCF7, NCI-H460, SF-268; experiment: DTP screen, overall activity call over the 3-cell line panel; parameters: key to Activity: Active: Compounds which reduce the growth of any one of the cell lines to a value of +32% or less (negative numbers indicate cell kill) are generally considered to be sufficiently “active”; conditions: for Activity: 1.00 E-04 Molar; for antineoplastic activity in the DTP screen: three test cell lines
Text: as §1, §2, §3

Compound | Growth Percentages (Breast) MCF7 [1] | Growth Percentages (CNS) SF-268 [2] | Growth Percentages (Lung) NCI-H460 [3] | Activity [4] | antineoplastic activity in the DTP screen [4]
CN(C)CC(CN(C)C)O[Si](C)(O[Si](C)(C)C)O[Si](C)(OC(CN(C)C)CN(C)C)O[Si](C)(C)C (stereo not shown) [Compound 5, bis-(trimethylsiloxy)-1,3-dimethyl, 1,3-(1,3-(N,N-dimethylamino)-2-propoxy)siloxane] | −5% | −24% | −16% | Active | showed antineoplastic activity against all three test cell lines
C[Si](C)(C)O[Si](C)(OCCCN)O[Si](C)(OCCCN)O[Si](C)(C)C (stereo not shown) [Compound 3, bis-(trimethylsiloxy)-1,3-dimethyl-1,3-(3-amino-1-propoxy)siloxane] | – | – | – | Inactive | inactive
